Experiment [1] addresses T1, human Factor Xa (fXa) (Homo sapiens, UniProt P00742).
T1 construct: purchased Haematologic Technologies Inc. (Essex Junction, Vt.)
The experiment can be described thus: Inhibition of serine protease activity, factor Xa, chromogenic substrate Pefachrome Xa. The following applies: 2 nM human Factor Xa, 300 μM substrate, pH 7.5. Type of experiment: biochemical. The protocol: (§1) The enzymes factor Xa (fXa), thrombin (factor IIa or fIIa), and trypsin were purchased from Haematologic Technologies Inc. (Essex Junction, Vt.). The substrates Pefachromes Xa, Th, and Try were purchased from Centerchem Inc. (Stamford, Conn.). Varying concentrations of the sulfonamide compounds were incubated for 30 min at room temperature with purified activated human enzyme in the appropriate buffer. Various concentrations of the corresponding synthetic substrate were added, and activity was measured at 37° C. by monitoring absorbance at 405 nm for 15 min with a Flurostar Optima plate reader. […] For controls, the appropriate percentage of solvent was used instead of test compound. The specific activity (ΔA405/min/nM protein), and the percent activity was calculated for each data point. The IC50 was calculated by linear regression of log[test compound] vs. % activity. The enzyme activity of the sulfonamide compound was determined using the Enzyme Kinetics Module of Sigmaplot 8.0 (SPSS Inc.)
The final concentration of human Factor Xa was 2 nM in a Tris/NaCl buffer (pH 7.5) containing 0.25% (w/v) polyethylene glycol (MW 8000). The substrate employed was Pefachrome Xa.

The target in experiment [2] is T2, human thrombin (factor IIa, fIIa) (Homo sapiens, UniProt P00734).
T2 construct: purchased Haematologic Technologies Inc. (Essex Junction, Vt.)
Briefly: Inhibition of serine protease activity, thrombin, chromogenic substrate Pefachrome Th. Type of experiment: biochemical. The note with it: 2 nM human thrombin, 300 μM substrate, pH 8.3. The protocol:
as §1
The final concentration of human thrombin was 2 nM in a Tris/NaCl buffer (pH 8.3) containing 0.125% (w/v) bovine serum albumin. The substrate used was Pefachrome Th.

The test system of experiment [3] is platelets (platelet rich plasma). Briefly: Inhibition of platelet aggregation in platelet rich plasma (Chrono-log aggregometer). The note with it: agonist collagen 1 μg/mL, compound concentration 500 μM, human PRP, read-out: % Reduction in Aggregation, Collagen (1 μg/mL). Type of experiment: cell-based. The protocol:
Platelet poor plasma (PPP) was obtained by centrifuging the remainder of the sample after the platelets were removed at 800×g for about 10 minutes. The PRP was adjusted to a count of 280×10^9/L using a mixture of PRP and PPP. The platelets (200 μL) were incubated with the test compounds (25 μL) adjusted to various concentrations ([…]) for about 30 minutes at room temperature (approximate final platelet count in the incubation mixture of 250×10^9/L). The samples were incubated for about 3 minutes at about 37° C., and then transferred to the mixing wells of a Chrono-log 4 channel aggregometer (Chrono-log Corp., Havertown, Pa.). After baselines were established, the agonist (25 μL of 40 μM ADP (Sigma, St. Louis, Mo.) or 25 μL of 50 μg/mL and 10 μg/mL collagen (Helena Laboratories, Beaumont, Tex.) or 25 μL of 120 μM thrombin receptor activating peptide (TRAP) (Sigma)) was then added. Aggregation was monitored for 5 minutes at 37° C. with stirring (1000 rpm). The amplitude and slope of each tracing were calculated to determine the amount of aggregation. Control samples were performed using only solvent. The % reduction in aggregation was calculated for each sample compared to the proper solvent control.

Experiment [4] has the same test system. The description is as above. Type of experiment: cell-based. The following applies: compound concentration 500 μM, human PRP.
For experiment [5], the system named is human trypsin. Briefly: Inhibition of serine protease activity, trypsin, chromogenic substrate Pefachrome Try. Type of experiment: biochemical. The following applies: 2 nM human trypsin, 300 μM substrate, pH 7.5. The protocol:
as §1
The final concentration of human trypsin was 2 nM in a Tris/NaCl buffer (pH 7.5) containing 0.25% (w/v) bovine serum albumin and 20 μM CaCl2. The substrate used was Pefachrome Try.

Like-named read-outs stand apart in the source and are kept apart here.

T1 sequence (P00742 235-488 limits assumed): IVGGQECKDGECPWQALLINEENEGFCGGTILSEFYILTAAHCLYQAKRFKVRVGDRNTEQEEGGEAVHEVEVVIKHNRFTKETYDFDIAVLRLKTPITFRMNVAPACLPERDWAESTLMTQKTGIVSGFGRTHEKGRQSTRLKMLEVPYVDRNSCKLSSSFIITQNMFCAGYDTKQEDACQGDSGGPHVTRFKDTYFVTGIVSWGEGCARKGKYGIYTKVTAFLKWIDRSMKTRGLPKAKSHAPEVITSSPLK
T1 sequence (P00742 41-179 partner limits assumed): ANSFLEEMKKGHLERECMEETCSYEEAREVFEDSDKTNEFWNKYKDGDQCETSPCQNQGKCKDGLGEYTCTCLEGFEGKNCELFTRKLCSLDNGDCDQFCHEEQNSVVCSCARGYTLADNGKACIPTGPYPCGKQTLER

Regarding `Cc1ncc(CNc2ccc(C(=N)N)cc2)c(CO)c1O` [Compound 33, reference compound], the IC50 was determined as 105 µM in experiment [1], 300 µM in experiment [2] and 18 µM in experiment [5]. Besides, the inhibition at 500 µM in experiment [3] came out at 5%; in experiment [4] (agonist ADP 4 μM, read-out: % Reduction in Aggregation, ADP (4 μM)), 4%; in experiment [4] (agonist TRAP 12 μM, read-out: % Reduction in Aggregation, TRAP (12 μM)) it was 1%; in experiment [4] (agonist collagen 5 μg/mL, read-out: % Reduction in Aggregation, Collagen (5 μg/mL)), 15%.

By IC50 is commonly meant the concentration that inhibits the measured activity by half. The low end stands for inhibition by little substance, the high end for a need for much substance.

These data come from patent US20070142270A1, “Aryl Sulfonic Pyridoxines as Antiplatelet Agents” (priority 2004, published 2007).
